Assay results from ChEMBL document CHEMBL5385845, “Novel coumarin aminophosphonates as potential multitargeting antibacterial agents against Staphylococcus aureus” (Eur J Med Chem, 2023).
≈ marks a conversion by molar mass, not a printed value.

Key:
Type in all cases: functional
[1] = system: Staphylococcus aureus; test: Antibacterial activity against methicillin resistant Staphylococcus aureus N315 assessed as inhibition of bacterial growth
[2] = system: Enterococcus faecalis; test: Antibacterial activity against Enterococcus faecalis assessed as inhibition of bacterial growth
[3] = system: Staphylococcus aureus; test: Antibacterial activity against Staphylococcus aureus assessed as inhibition of bacterial growth
[4] = system: Staphylococcus aureus; test: Antibacterial activity against Staphylococcus aureus ATCC 25923 assessed as inhibition of bacterial growth
[5] = system: Staphylococcus aureus; test: Antibacterial activity against Staphylococcus aureus ATCC 29213 assessed as inhibition of bacterial growth
[6] = system: Klebsiella pneumoniae; test: Antibacterial activity against Klebsiella pneumoniae assessed as inhibition of bacterial growth
[7] = system: Escherichia coli; test: Antibacterial activity against Escherichia coli assessed as inhibition of bacterial growth
[8] = system: Pseudomonas aeruginosa; test: Antibacterial activity against Pseudomonas aeruginosa assessed as inhibition of bacterial growth
[9] = system: Acinetobacter baumannii; test: Antibacterial activity against Acinetobacter baumannii assessed as inhibition of bacterial growth
[10] = system: Pseudomonas aeruginosa; test: Antibacterial activity against Pseudomonas aeruginosa ATCC 27853 assessed as inhibition of bacterial growth
[11] = system: Escherichia coli; test: Antibacterial activity against Escherichia coli ATCC 25922 assessed as inhibition of bacterial growth
[12] = system: Staphylococcus aureus; test: Synergistic antibacterial activity against Staphylococcus aureus assessed as inhibition of bacterial growth in presence of compound 6f
[13] = system: Escherichia coli; test: Synergistic antibacterial activity against Escherichia coli ATCC 25922 assessed as inhibition of bacterial growth in presence of compound 6f
[14] = system: Staphylococcus aureus; test: Induction of drug resistance in Staphylococcus aureus assessed as fold increase in MIC measured for 23 passages

## CCOP(=O)(OCC)C(Nc1ccc2c(C)cc(=O)oc2c1)c1ccc(O)c([N+](=O)[O-])c1 (stereo not given)
[1]
  MIC: 256 µg/mL (≈ 554 µM)
[2]
  MIC: 64 µg/mL (≈ 138 µM)
[3]
  MIC: 32 µg/mL (≈ 69.2 µM)
[4]
  MIC: 64 µg/mL (≈ 138 µM)
[5]
  MIC: 32 µg/mL (≈ 69.2 µM)
[6]
  MIC: 128 µg/mL (≈ 277 µM)
[7]
  MIC: 64 µg/mL (≈ 138 µM)
[8]
  MIC: 32 µg/mL (≈ 69.2 µM)
[9]
  MIC: 64 µg/mL (≈ 138 µM)
[10]
  MIC: 128 µg/mL (≈ 277 µM)
[11]
  MIC: 128 µg/mL (≈ 277 µM)

## CCOP(=O)(OCC)C(Nc1ccc2c(C)cc(=O)oc2c1)c1ccc(O)c(OC)c1 (stereo not given)
[1]
  MIC: 128 µg/mL (≈ 286 µM)
[2]
  MIC: 16 µg/mL (≈ 35.8 µM)
[3]
  MIC: 64 µg/mL (≈ 143 µM)
[4]
  MIC: 64 µg/mL (≈ 143 µM)
[5]
  MIC: 128 µg/mL (≈ 286 µM)
[6]
  MIC: 256 µg/mL (≈ 572 µM)
[7]
  MIC: 128 µg/mL (≈ 286 µM)
[8]
  MIC: 256 µg/mL (≈ 572 µM)
[9]
  MIC: 128 µg/mL (≈ 286 µM)
[10]
  MIC: 64 µg/mL (≈ 143 µM)
[11]
  MIC: 64 µg/mL (≈ 143 µM)

## CCOP(=O)(OCC)C(Nc1ccc2c(C)cc(=O)oc2c1)c1ccc(C(F)(F)F)cc1 (stereo not given)
[1]
  MIC: 256 µg/mL (≈ 545 µM)
[2]
  MIC: 128 µg/mL (≈ 273 µM)
[3]
  MIC: 256 µg/mL (≈ 545 µM)
[4]
  MIC: 256 µg/mL (≈ 545 µM)
[5]
  MIC: 256 µg/mL (≈ 545 µM)
[6]
  MIC: 128 µg/mL (≈ 273 µM)
[7]
  MIC: 128 µg/mL (≈ 273 µM)
[8]
  MIC: 64 µg/mL (≈ 136 µM)
[9]
  MIC: 128 µg/mL (≈ 273 µM)
[10]
  MIC: 64 µg/mL (≈ 136 µM)
[11]
  MIC: 64 µg/mL (≈ 136 µM)

## CCCCc1nc(Cl)c(C(Nc2ccc3c(C)cc(=O)oc3c2)P(=O)(OCC)OCC)n1Cc1ccc(Cl)cc1Cl (stereo not given)
[1]
  MIC: 128 µg/mL (≈ 200 µM)
[2]
  MIC: 128 µg/mL (≈ 200 µM)
[3]
  MIC: 64 µg/mL (≈ 99.9 µM)
[4]
  MIC: 32 µg/mL (≈ 49.9 µM)
[5]
  MIC: 128 µg/mL (≈ 200 µM)
[6]
  MIC: 128 µg/mL (≈ 200 µM)
[7]
  MIC: 64 µg/mL (≈ 99.9 µM)
[8]
  MIC: 64 µg/mL (≈ 99.9 µM)
[9]
  MIC: 128 µg/mL (≈ 200 µM)
[10]
  MIC: 256 µg/mL (≈ 399 µM)
[11]
  MIC: 128 µg/mL (≈ 200 µM)

## CCCCc1nc(Cl)c(C(Nc2ccc3c(C)cc(=O)oc3c2)P(=O)(OCC)OCC)n1Cc1ccc(F)cc1F (stereo not given)
[1]
  MIC: 64 µg/mL (≈ 105 µM)
[2]
  MIC: 128 µg/mL (≈ 211 µM)
[3]
  MIC: 32 µg/mL (≈ 52.6 µM)
[4]
  MIC: 128 µg/mL (≈ 211 µM)
[5]
  MIC: 64 µg/mL (≈ 105 µM)
[6]
  MIC: 128 µg/mL (≈ 211 µM)
[7]
  MIC: 128 µg/mL (≈ 211 µM)
[8]
  MIC: 256 µg/mL (≈ 421 µM)
[9]
  MIC: 64 µg/mL (≈ 105 µM)
[10]
  MIC: 128 µg/mL (≈ 211 µM)
[11]
  MIC: 128 µg/mL (≈ 211 µM)

## CCOP(=O)(OCC)C(Nc1ccc2c(C)cc(=O)oc2c1)c1ccc(C(=O)O)cc1 (stereo not given)
[1]
  MIC: 256 µg/mL (≈ 575 µM)
[2]
  MIC: 128 µg/mL (≈ 287 µM)
[3]
  MIC: 64 µg/mL (≈ 144 µM)
[4]
  MIC: 128 µg/mL (≈ 287 µM)
[5]
  MIC: 64 µg/mL (≈ 144 µM)
[6]
  MIC: 64 µg/mL (≈ 144 µM)
[7]
  MIC: 32 µg/mL (≈ 71.8 µM)
[8]
  MIC: 16 µg/mL (≈ 35.9 µM)
[9]
  MIC: 128 µg/mL (≈ 287 µM)
[10]
  MIC: 64 µg/mL (≈ 144 µM)
[11]
  MIC: 256 µg/mL (≈ 575 µM)

## CCOP(=O)(OCC)C(Nc1ccc2c(C)cc(=O)oc2c1)c1cc(O)c2c(c1)C(=O)c1cccc(O)c1C2=O (stereo not given)
[1]
  MIC: 4 µg/mL (≈ 7.1 µM)
[2]
  MIC: 32 µg/mL (≈ 56.8 µM)
[3]
  MIC: 8 µg/mL (≈ 14.2 µM)
[4]
  MIC: 4 µg/mL (≈ 7.1 µM)
[5]
  MIC: 8 µg/mL (≈ 14.2 µM)
[6]
  MIC: 32 µg/mL (≈ 56.8 µM)
[7]
  MIC: 8 µg/mL (≈ 14.2 µM)
[8]
  MIC: 8 µg/mL (≈ 14.2 µM)
[9]
  MIC: 16 µg/mL (≈ 28.4 µM)
[10]
  MIC: 8 µg/mL (≈ 14.2 µM)
[11]
  MIC: 4 µg/mL (≈ 7.1 µM)

## CCCCc1nc(Cl)c(C(Nc2ccc3c(C)cc(=O)oc3c2)P(=O)(OCC)OCC)n1Cc1ccccc1F (stereo not given)
[1]
  MIC: 64 µg/mL (≈ 108 µM)
[2]
  MIC: 128 µg/mL (≈ 217 µM)
[3]
  MIC: 128 µg/mL (≈ 217 µM)
[4]
  MIC: 64 µg/mL (≈ 108 µM)
[5]
  MIC: 32 µg/mL (≈ 54.2 µM)
[6]
  MIC: 128 µg/mL (≈ 217 µM)
[7]
  MIC: 32 µg/mL (≈ 54.2 µM)
[8]
  MIC: 256 µg/mL (≈ 434 µM)
[9]
  MIC: 32 µg/mL (≈ 54.2 µM)
[10]
  MIC: 64 µg/mL (≈ 108 µM)
[11]
  MIC: 256 µg/mL (≈ 434 µM)

## CCn1cc(C(=O)O)c(=O)c2cc(F)c(N3CCNCC3)cc21 [NORFLOXACIN]
[1]
  MIC: 4 µg/mL (≈ 12.5 µM)
[2]
  MIC: 8 µg/mL (≈ 25.1 µM)
[3]
  MIC: 16 µg/mL (≈ 50.1 µM)
[4]
  MIC: 8 µg/mL (≈ 25.1 µM)
[5]
  MIC: 16 µg/mL (≈ 50.1 µM)
[6]
  MIC: 1 µg/mL (≈ 3.13 µM)
[7]
  MIC: 8 µg/mL (≈ 25.1 µM)
[8]
  MIC: 4 µg/mL (≈ 12.5 µM)
[9]
  MIC: 8 µg/mL (≈ 25.1 µM)
[10]
  MIC: 4 µg/mL (≈ 12.5 µM)
[11]
  MIC: 16 µg/mL (≈ 50.1 µM)
[12]
  MIC: 4 µg/mL
[13]
  MIC: 8 µg/mL
[14]
  fold change (FC): 32

## CCOP(=O)(OCC)C(Nc1ccc2c(C)cc(=O)oc2c1)c1ccc(O)c(Br)c1 (stereo not given)
[1]
  MIC: 256 µg/mL (≈ 516 µM)
[2]
  MIC: 128 µg/mL (≈ 258 µM)
[3]
  MIC: 64 µg/mL (≈ 129 µM)
[4]
  MIC: 128 µg/mL (≈ 258 µM)
[5]
  MIC: 128 µg/mL (≈ 258 µM)
[6]
  MIC: 128 µg/mL (≈ 258 µM)
[7]
  MIC: 64 µg/mL (≈ 129 µM)
[8]
  MIC: 32 µg/mL (≈ 64.5 µM)
[9]
  MIC: 128 µg/mL (≈ 258 µM)
[10]
  MIC: 64 µg/mL (≈ 129 µM)
[11]
  MIC: 128 µg/mL (≈ 258 µM)

## CCOP(=O)(OCC)C(Nc1ccc2c(C)cc(=O)oc2c1)c1nccs1 (stereo not given)
[1]
  MIC: 64 µg/mL (≈ 157 µM)
[2]
  MIC: 128 µg/mL (≈ 313 µM)
[3]
  MIC: 16 µg/mL (≈ 39.2 µM)
[4]
  MIC: 128 µg/mL (≈ 313 µM)
[5]
  MIC: 32 µg/mL (≈ 78.4 µM)
[6]
  MIC: 256 µg/mL (≈ 627 µM)
[7]
  MIC: 128 µg/mL (≈ 313 µM)
[8]
  MIC: 64 µg/mL (≈ 157 µM)
[9]
  MIC: 32 µg/mL (≈ 78.4 µM)
[10]
  MIC: 8 µg/mL (≈ 19.6 µM)
[11]
  MIC: 64 µg/mL (≈ 157 µM)

## CCOP(=O)(OCC)C(Nc1ccc2c(C(F)(F)F)cc(=O)oc2c1)c1cccc(O)c1 (stereo not given)
[1]
  MIC: 32 µg/mL (≈ 67.9 µM)
[2]
  MIC: 16 µg/mL (≈ 33.9 µM)
[3]
  MIC: 16 µg/mL (≈ 33.9 µM)
[4]
  MIC: 8 µg/mL (≈ 17 µM)
[5]
  MIC: 64 µg/mL (≈ 136 µM)
[6]
  MIC: 32 µg/mL (≈ 67.9 µM)
[7]
  MIC: 256 µg/mL (≈ 543 µM)
[8]
  MIC: 32 µg/mL (≈ 67.9 µM)
[9]
  MIC: 128 µg/mL (≈ 272 µM)
[10]
  MIC: 16 µg/mL (≈ 33.9 µM)
[11]
  MIC: 16 µg/mL (≈ 33.9 µM)
